Data taken from patent publication US9963472B2, “Stable pantetheine derivatives for the treatment of pantothenate kinase associated neurodegeneration (PKAN) and methods for the synthesis of such compounds” (ACIES BIO D.O.O., priority 2013, dated 2018).

What was measured:
protein acetylation = assay: Rescue of protein acetylation defect in PKAN models; format: cell-based
Excerpt: For a variety of diseases HDAC inhibitors are being used and specifically the valproic acid is currently used in diseases ranging from cancer, to epilepsy, to neurodegeneration. The disadvantage is that valproic acid has severe side effects.

[1] = tested on: dPANK/fbl down-regulated Drosophila-S2 cells; assay: Rescue of cell survival in dPANK/fbl RNAi Drosophila S2 cells (PKAN cell model); format: cell-based; details: 100 μM; for rescue of cell count defect (cell survival): triplicate
Excerpt: The down-regulation of […] ortholog in Drosophila) using RNAi approach in Drosophila S2 cells is an established in-vitro PKAN disease model (Rana, A. et al., PNAS, 2010, 107, 6988; Siudja et al., EMBO Mol med. 2011, 3, 755; Siudeja et al., PLoS One 2012, 7, e443145). Down-regulation of dPANK/fbl by RNAi, causes a decrease in the survival of cells. […] Materials and Methods: […]

[2] = tested on: HEK293 cells treated with HOPAN; assay: Rescue of HEK293 cells in HOPAN induced PKAN model; format: cell-based, human; details: 100 μM, HOPAN 0.5 mM, 4 days, HEK293, vitamin B5 deficient DMEM
Experimental: Similar to Drosophila-S2 cells, the PKAN disease model can also be induced using HOPAN in mammalian cell lines. Rescue efficiency of (S)-acetyl-4′-phosphopantetheine and 4′-phosphopantetheine was studied in HOPAN induced PKAN model system, namely in mammalian HEK293 cells.
Materials and Methods: HEK293 cells were cultured in vitamin B5 deficient DMEM (Thermo Scientific) supplemented with 10% dialysed FCS (Thermo Scientific) with and without HOPAN (0.5 mM) and (S)-acetyl-4′-phosphopantetheine and 4′-phosphopantetheine for 4 days. 100 μM of (S)-acetyl-4′-phosphopantetheine and 4′-phosphopantetheine was compared for its rescue efficiency.

Human HEK293 cells = assay: Cellular toxicity (drop in cell counts) in HEK293 cells; format: cell-based; details: increasing concentrations
[3] = tested on: Drosophila-S2 cells treated with HOPAN; assay: Rescue in HOPAN assay, Drosophila S2 cells; format: cell-based; details: 100 μM, HOPAN 0.5 mM, two days
Experimental: In an additional experiment, Drosophila-S2 cells treated with the chemical inhibitor HOPAN (hopanthenate, CAS 17097-76-6, IUPAC: calcium 4-[[(2R)-2,4-dihydroxy-3,3-dimethylbutanoyl]amino]butanoate). Cells treated with HOPAN also serve as a model for PKAN. Cells treated with HOPAN also show a reduction in cell viability.
Materials and Methods: Drosophila Schneider's S2 cells were cultured and subjected to HOPAN (0.5 mM) treatment with and without (S)-acetyl-4′-phosphopantetheine and 4′-phosphopantetheine for two days (Siudeja. K. et al., EMBO Mol Med. 2011, 3, 755). 100 μM of (S)-acetyl-4′-phosphopantetheine and 4′-phosphopantetheine was compared for its rescue efficiency.

| Compound | rescue of protein acetylation defect (protein acetylation) | rescue potential compared to the other compounds [1] | rescue of cell count defect (cell survival) [1] | reduction of HOPAN induced cell count defect [2] | toxicity (drop in cell counts) (Human HEK293 cells) | rescue of HOPAN induced cell count defect [3] |
| --- | --- | --- | --- | --- | --- | --- |
| CC(/C=C/C(=O)NO)=C\[C@@H](C)C(=O)c1ccc(N(C)C)cc1 [Trichostatin A] | rescue the protein acetylation defect | – | – | – | – | – |
| (S)-acetyl-4′-phosphopantetheine | – | superior rescue potential as compared to pantethine and 4′-phosphopantetheine | rescued the cell count defect significantly | significantly reduced the HOPAN induced cell count defect | less toxic compared to pantethine | significantly rescued |
| CCCC(CCC)C(=O)O [valproic acid] | rescue the protein acetylation defect | – | – | – | – | – |
| CC(C)(COP(=O)(O)O)[C@@H](O)C(=O)NCCC(=O)NCCS [4′-phosphopantetheine] | – | – | rescued the cell count defect significantly | significantly reduced the HOPAN induced cell count defect | less toxic compared to pantethine | – |
